From US20230212549A1, “COMPOUNDS COMPRISING A […] LIGAND AND USE THEREOF” (priority 2021, published 2023)
Numbered stars: 1 amine (or outer) side, 2 acyl side, 3 side chain; on linkers, the order of the positions; unused ones are H or OH. Bridge positions count the residues as written; N and C are the ends. Square brackets hold non-standard residues; d marks the D form. Peptide text beside a SMILES is read from it. * marks the point of attachment. ξ: configuration not given here. TBMB(SCH2CH2NH-DOTA) = O=C(O)CN1CCN(CC(=O)O)CCN(CC(=O)NCCSCc2cc(C[*:1])cc(C[*:2])c2)CCN(CC(=O)O)CC1; X13 = O=C(O)CN1CCN(CC(=O)O)CCN(CC(=O)N2CCN(Cc3cc(C[*:1])cc(C[*:2])c3)CC2)CCN(CC(=O)O)CC1; X7 = O=C(CCP(=O)(O)CN1CCN(CP(=O)(O)CO)CCN(CP(=O)(O)CO)CC1)NCCSCc1cc(C[*:1])cc(C[*:2])c1; 1Nal = N[C@@H](Cc1cccc2ccccc12)C(=O)O; Pentanesulfonyl = CCCCCS(=O)(=O)*; Hexanoyl = CCCCCC(=O)*; CO = O=C([*:1])[*:2]; ξC = NC(CS)C(=O)O; Sar = CNCC(=O)O; NHBu = CCCCN*

Experiments:
[1] = molecular target: T1, FAP-expressing human WI-38 fibroblasts (Homo sapiens, UniProt Q12884); experiment: Competitive FACS binding assay
T1 construct: FAP-expressing human WI-38 fibroblasts (ECACC) were cultured in EMEM; host or cells: WI-38 human fibroblasts
T1 sequence (Q12884 whole entry): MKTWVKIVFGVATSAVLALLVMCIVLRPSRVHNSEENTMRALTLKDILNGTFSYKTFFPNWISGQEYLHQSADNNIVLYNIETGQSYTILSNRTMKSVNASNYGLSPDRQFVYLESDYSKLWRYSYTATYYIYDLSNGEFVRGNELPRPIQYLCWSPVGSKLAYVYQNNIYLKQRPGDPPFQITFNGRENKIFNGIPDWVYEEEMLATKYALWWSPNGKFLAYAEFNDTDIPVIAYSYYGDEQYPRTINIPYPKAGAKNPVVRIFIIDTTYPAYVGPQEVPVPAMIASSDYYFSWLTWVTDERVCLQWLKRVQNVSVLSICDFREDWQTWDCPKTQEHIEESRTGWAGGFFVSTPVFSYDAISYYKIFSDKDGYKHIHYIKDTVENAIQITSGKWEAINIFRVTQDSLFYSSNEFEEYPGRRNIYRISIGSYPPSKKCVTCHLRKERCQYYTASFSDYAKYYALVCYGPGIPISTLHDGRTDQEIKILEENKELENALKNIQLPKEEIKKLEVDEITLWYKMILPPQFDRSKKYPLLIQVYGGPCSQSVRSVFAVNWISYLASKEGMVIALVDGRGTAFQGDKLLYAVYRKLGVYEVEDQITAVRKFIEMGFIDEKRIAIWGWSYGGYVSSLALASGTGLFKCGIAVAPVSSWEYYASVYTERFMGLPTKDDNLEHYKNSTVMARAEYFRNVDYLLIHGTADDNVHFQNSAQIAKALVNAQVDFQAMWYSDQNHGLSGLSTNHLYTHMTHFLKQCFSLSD
Method: Cells were analyzed in an Attune NxT flow cytometer. […] […].
Cells were analyzed in an Attune NxT flow cytometer. […]

[2] = molecular target: T2, Human recombinant FAP (Homo sapiens, UniProt Q12884); experiment: Surface plasmon resonance (Biacore) assay; assay type: binding; details: for pKD Category: Biacore assay
T2 sequence (Q12884 whole entry): as above

[3] = in vivo; details: female, athymic nude, mouse, iv
[4] = molecular target: T2, Human recombinant FAP; experiment: FRET-based FAP protease activity assay; assay type: biochemical; parameters: purchased R&D systems 3715-SE
[5] = pIC50 Category (activity), Recombinant human FAP
[6] = pIC50 Category (Activity), FRET-based FAP protease activity assay, recombinant human FAP, 37° C.
[7] = pIC50 Category (Activity), FRET-peptide substrate, 37° C.

IC50 [1]	Kd [2]	IC50 [4, 6]	IC50 [4, 7]	SMILES	further results
< 10 nM	< 10 nM			CCCC[C@H](NC(=O)CCC(=O)NCCCOCCOCCOCCCNC(=O)CN1CCN(CC(=O)O)CCN(CC(=O)O)CC1)C(=O)N[C@H]1CSCc2cccc(c2)CSCC(C(=O)O)NC(=O)[C@H](Cc2ccccc2)NC(=O)[C@H](CCC(N)=O)NC(=O)[C@H]([C@@H](C)O)NC(=O)[C@@H]2CCCN2C(=O)[C@@H]2CCCN2C1=O (stereo partly drawn) [3BP-5201, NOTA-Ttds-Nle-[Cys(3MeBn)-Pro-Pro-Thr-Gln-Phe-Cys]-OH]	tissue uptake at 0.25 h ([3]; blood pool surrogate (BPS)): 2.31 %ID/g; tissue uptake at 1 h ([3]; blood pool surrogate (BPS)): 0.85 %ID/g; tissue uptake at 3 h ([3]; blood pool surrogate (BPS)): 0.38 %ID/g; tissue uptake at 0.25 h ([3]; kidneys): 9.27 %ID/g; tissue uptake at 1 h ([3]; kidneys): 1.97 %ID/g; tissue uptake at 3 h ([3]; kidneys): 1 %ID/g; tissue uptake at 0.25 h ([3]; tumor): 5.56 %ID/g; tissue uptake at 1 h ([3]; tumor): 6.3 %ID/g; tissue uptake at 3 h ([3]; tumor): 6.25 %ID/g; IC50 [4, 5]: 10 to 79.4 nM
< 10 nM	< 10 nM	< 10 nM		CCCCCC(=O)N[C@H]1CSCc2cc(CSCCNC(=O)CN3CCN(CC(=O)O)CCN(CC(=O)O)CCN(CC(=O)O)CC3)cc(c2)CSC[C@@H](C(N)=O)NC(=O)[C@H](Cc2ccccc2)NC(=O)[C@H](CCC(N)=O)NC(=O)[C@H]([C@@H](C)O)NC(=O)[C@@H]2CCCN2C(=O)[C@@H]2CCCN2C1=O [3BP-3652, Hex-[Cys(tMeBn(DOTA-AET))-Pro-Pro-Thr-Gln-Phe-Cys]-NH2]	
10 to 79.4 nM	< 10 nM		10 to 79.4 nM	CCCC[C@H](NC(=O)CCC(=O)NCCCOCCOCCOCCCNC(=O)[C@H](CCC(=O)NC[C@H](O)[C@@H](O)[C@H](O)[C@H](O)CO)NC(=O)C(CNCCN)CNCCN)C(=O)N[C@H]1CSCc2cccc(c2)CSC[C@@H](C(=O)O)NC(=O)[C@H](Cc2ccccc2)NC(=O)[C@H](CCC(N)=O)NC(=O)[C@H]([C@@H](C)O)NC(=O)[C@@H]2CCCN2C(=O)[C@@H]2CCCN2C1=O [3BP-4246, N4Ac-Glu(AGLU)-Ttds-Nle-[Cys-(3MeBn)-Pro-Pro-Thr-Gln-Phe-Cys]-OH]	
< 10 nM	< 10 nM		< 10 nM	CCCCNC(=O)N[C@H]1CSCc2cc(CSCCNC(=O)CN3CCN(CC(=O)O)CCN(CC(=O)O)CCN(CC(=O)O)CC3)cc(c2)CSC[C@@H](C(N)=O)NC(=O)[C@H](Cc2ccccc2)NC(=O)[C@H](CCC(N)=O)NC(=O)[C@H]([C@@H](C)O)NC(=O)[C@@H]2CCCN2C(=O)CN(C)C1=O [3BP-4621, nBu-CAyl-[Cys(tMeBn(DOTA-AET))-Nmg-Pro-Thr-Gln-Phe-Cys]-NH2] ({NHBu-CO}-C[Sar]PTQFC-NH2; linker 1-7 via TBMB(SCH2CH2NH-DOTA))	
< 10 nM	< 10 nM	< 10 nM		CCCCCC(=O)N[C@H]1CSCc2cc(CSCCNC(=O)CN3CCN(CC(=O)O)CCN(CC(=O)O)CCN(CC(=O)O)CC3)cc(c2)CSC[C@@H](C(=O)NCCCC(=O)O)NC(=O)[C@H](Cc2ccccc2)NC(=O)[C@H](CCC(N)=O)NC(=O)[C@H]([C@@H](C)O)NC(=O)[C@@H]2CCCN2C(=O)[C@@H]2CCCN2C1=O [3BP-3657, Hex-[Cys(tMeBn(DOTA-AET))-Pro-Pro-Thr-Gln-Phe-Cys]-Gab-OH]	
< 10 nM	< 10 nM		< 10 nM	CC(C)CCC(=O)N[C@H]1CSCc2cc(CSCCNC(=O)CN3CCN(CC(=O)O)CCN(CC(=O)O)CCN(CC(=O)O)CC3)cc(c2)CSC[C@@H](C(=O)O)NC(=O)[C@H](Cc2ccccc2)NC(=O)[C@H](CCC(N)=O)NC(=O)[C@H]([C@@H](C)O)NC(=O)[C@@H]2CCCN2C(=O)[C@@H]2CCCN2C1=O [3BP-3907, iHex-[Cys(tMeBn(DOTA-AET))-Pro-Pro-Thr-Gln-Phe-Cys]-OH]	pKD Category [2]: A (Category A stands for pKD values >8.0)
< 10 nM	< 10 nM			CCCCNC(=O)N[C@H]1CSCc2cc(CSCCNC(=O)CN3CCN(CC(=O)O)CCN(CC(=O)O)CC3)cc(c2)CSCC(C(=O)O)NC(=O)[C@H](Cc2ccccc2)NC(=O)[C@H](CCC(N)=O)NC(=O)[C@H]([C@@H](C)O)NC(=O)[C@@H]2CCCN2C(=O)[C@@H]2CCCN2C1=O (stereo partly drawn) [3BP-5210, nBu-CAyl-[Cys(tMeBn(NOTA-AET))-Pro-Pro-Thr-Gln-Phe-Cys]-OH]	tissue uptake at 0.25 h ([3]; blood pool surrogate (BPS)): 2.72 %ID/g; tissue uptake at 1 h ([3]; blood pool surrogate (BPS)): 0.68 %ID/g; tissue uptake at 3 h ([3]; blood pool surrogate (BPS)): 0.14 %ID/g; tissue uptake at 0.25 h ([3]; kidneys): 37.3 %ID/g; tissue uptake at 1 h ([3]; kidneys): 5.61 %ID/g; tissue uptake at 3 h ([3]; kidneys): 0.42 %ID/g; tissue uptake at 0.25 h ([3]; tumor): 7.48 %ID/g; tissue uptake at 1 h ([3]; tumor): 8.9 %ID/g; tissue uptake at 3 h ([3]; tumor): 9.53 %ID/g; IC50 [4, 5]: < 10 nM
< 10 nM	< 10 nM		< 10 nM	CCOCCC(=O)N[C@H]1CSCc2cc(CSCCNC(=O)CN3CCN(CC(=O)O)CCN(CC(=O)O)CCN(CC(=O)O)CC3)cc(c2)CSC[C@@H](C(=O)O)NC(=O)[C@H](Cc2ccccc2)NC(=O)[C@H](CCC(N)=O)NC(=O)[C@H]([C@@H](C)O)NC(=O)[C@@H]2CCCN2C(=O)[C@@H]2CCCN2C1=O [3BP-3918, EtOPr-[Cys(tMeBn(DOTA-AET))-Pro-Pro-Thr-Gln-Phe-Cys]-OH]	pKD Category [2]: A (Category A stands for pKD values >8.0)
< 10 nM	< 10 nM	< 10 nM		CCCCCC(=O)N[C@H]1CSCc2cc(CSCCNC(=O)CN3CCN(CC(=O)O)CCN(CC(=O)O)CCN(CC(=O)O)CC3)cc(c2)CSC[C@@H](C(=O)O)NC(=O)[C@H](Cc2cccc3ccccc23)NC(=O)[C@H](CCC(N)=O)NC(=O)[C@H]([C@@H](C)O)NC(=O)[C@@H]2CCCN2C(=O)[C@@H]2CCCN2C1=O [3BP-3650, Hex-[Cys(tMeBn(DOTA-AET))-Pro-Pro-Thr-Gln-1Ni-Cys]-OH] (Hexanoyl-CPPTQ[1Nal]C-OH; linker 1-7 via TBMB(SCH2CH2NH-DOTA))	
< 10 nM	< 10 nM	< 10 nM		CCCCCC(=O)N[C@H]1CSCc2cc(CSCCNC(=O)CN3CCN(CC(=O)O)CCN(CC(=O)O)CCN(CC(=O)O)CC3)cc(c2)CSC[C@@H](C(=O)N[C@@H](CO)C(=O)O)NC(=O)[C@H](Cc2ccccc2)NC(=O)[C@H](CCC(N)=O)NC(=O)[C@H]([C@@H](C)O)NC(=O)[C@@H]2CCCN2C(=O)[C@@H]2CCCN2C1=O [3BP-3658, Hex-[Cys(tMeBn(DOTA-AET))-Pro-Pro-Thr-Gln-Phe-Cys]-Ser-OH] (Hexanoyl-CPPTQFCS-OH; linker 1-7 via TBMB(SCH2CH2NH-DOTA))	

SMILES	IC50 [1]	Kd [2]	IC50 [4, 6]	IC50 [4, 7]	further results
CCCCNC(=O)N[C@H]1CSCc2cc(CSCCNC(=O)CCP(=O)(O)CN3CCN(CP(=O)(O)CO)CCN(CP(=O)(O)CO)CC3)cc(c2)CSCC(C(=O)O)NC(=O)[C@H](Cc2ccccc2)NC(=O)[C@H](CCC(=O)O)NC(=O)[C@H]([C@@H](C)O)NC(=O)[C@@H]2CCCN2C(=O)[C@@H]2CCCN2C1=O (stereo partly drawn) [3BP-4778, nBu-CAyl-[Cys(tMeBn(NOPO-AET))-Pro-Pro-Thr-Glu-Phe-Cys]-OH] ({NHBu-CO}-CPPTEF[ξC]-OH; linker 1-7 via X7)	< 10 nM	< 10 nM			tissue uptake at 0.25 h ([3]; blood pool surrogate (BPS), uptake BPS 0.25 h, ^68Ga-labeled, BPS (blood pool surrogate), PET/CT, 0.25 h post tracer injection): 1.61 %ID/g; tissue uptake at 1 h ([3]; blood pool surrogate (BPS), uptake BPS 1 h, ^68Ga-labeled, BPS (blood pool surrogate), PET/CT, 1 h post tracer injection): 0.77 %ID/g; tissue uptake at 3 h ([3]; blood pool surrogate (BPS), uptake BPS 3 h, ^68Ga-labeled, BPS (blood pool surrogate), PET/CT, 3 h post tracer injection): 0.33 %ID/g; tissue uptake at 0.25 h ([3]; kidneys, uptake Kidneys 0.25 h, ^68Ga-labeled, PET/CT, 0.25 h post tracer injection): 3.38 %ID/g; tissue uptake at 1 h ([3]; kidneys, uptake Kidneys 1 h, ^68Ga-labeled, PET/CT, 1 h post tracer injection): 1.81 %ID/g; tissue uptake at 3 h ([3]; kidneys, uptake Kidneys 3 h, ^68Ga-labeled, PET/CT, 3 h post tracer injection): 1 %ID/g; tissue uptake at 0.25 h ([3]; tumor, uptake Tumor 0.25 h, ^68Ga-labeled, HEK-FAP tumor, PET/CT, 0.25 h post tracer injection): 3.66 %ID/g; tissue uptake at 1 h ([3]; tumor, uptake Tumor 1 h, ^68Ga-labeled, HEK-FAP tumor, PET/CT, 1 h post tracer injection): 4.06 %ID/g; tissue uptake at 3 h ([3]; tumor, uptake Tumor 3 h, ^68Ga-labeled, HEK-FAP tumor, PET/CT, 3 h post tracer injection): 4.45 %ID/g; IC50 [4, 5]: < 10 nM
CCCCCS(=O)(=O)N[C@H]1CSCc2cc(cc(CN3CCN(C(=O)CN4CCN(CC(=O)O)CCN(CC(=O)O)CCN(CC(=O)O)CC4)CC3)c2)CSC[C@@H](C(=O)N[C@@H](CC(=O)O)C(N)=O)NC(=O)[C@H](Cc2ccccc2)NC(=O)[C@H](CCC(N)=O)NC(=O)[C@H]([C@@H](C)O)NC(=O)[C@@H]2CCCN2C(=O)[C@@H]2CCCN2C1=O [3BP-3692, Pentyl-SO2-[Cys(tMeBn(DOTA-PP))-Pro-Pro-Thr-Gln-Phe-Cys]-Asp-NH2] (Pentanesulfonyl-CPPTQFCD-NH2; linker 1-7 via X13)	< 10 nM	< 10 nM	< 10 nM		
CCCCNC(=O)N[C@H]1CSCc2cc(cc(CN3CCN(C(=O)CN4CCN(CC(=O)O)CCN(CC(=O)O)CCN(CC(=O)O)CC4)CC3)c2)CSC[C@@H](C(=O)O)NC(=O)[C@H](Cc2ccccc2)NC(=O)[C@H](CCC(N)=O)NC(=O)[C@H]([C@@H](C)O)NC(=O)[C@@H]2CCCN2C(=O)[C@@H]2CCCN2C1=O [3BP-4564, nBu-CAyl-[Cys(tMeBn(DOTA-PP))-Pro-Pro-Thr-Gln-Phe-Cys]-OH]	< 10 nM	< 10 nM		< 10 nM	
